Experimental data taken from patent US20120258944A1, “ANTIOXIDANTS FOR USE IN THERAPY” (priority 2009, published 2012).

Legend:
[1] = system: kidney slice; test: Organ model TBARS experiment (TBA-MDA assay) in kidney slices
[2] = system: human neutrophils and PBMCs, rat neutrophils and PBMCs, human PLB-985 cell line; test: Extracellular ROS, isoluminol luminescence, PMA or fMLF stimulated cells; format: cell-based; conditions: PMA or fMLF 30 ng/ml; compounds 120 to 0 microM; FIG. 1-4, 9-12, 14-17
Experimental: (§1) Validation was performed by stimulating cells with PMA and fMLF. When treated with the antioxidants, altered level of ROS production from the cells was measured using luminometry. Both intracellular and extracellular effect on ROS on the cells was analyzed using isoluminol (extracellular) and luminol (intracellular when co-administered with SOD and catalase) (Dahlgren et al. “Respiratory burst in human neutrophils”, Journal of Immunological Methods 232 1999; 3-14).
The isoluminol reagent buffer was made of HBSS buffer (with Ca^2+), Isoluminol and HRP.
(§2) 1) Add 25 microL of antioxidants to assay plate to get proper concentrations in a total reaction volume of 100 micro-L. 2) Add 25 microL of PMA (120 ng/ml) and fMLF (120 ng/ml) to assay plate to get concentration of 30 ng/ml in a total reaction volume of 100 microL. 3) Add 50 microL of cell suspension (2 million cells/ml) to each well. Immediately after addition of cell suspension initiate luminescence measurement; the reaction starts at once when the cells are added to the assay plate. Measurement points are taken at 1-minute intervals for 25 minutes. Data is presented as AUC (Area Under Curve) by a summary of all collected measurements for each well.
FIG. 1: Extracellular ROS analyzed by Isoluminol induced luminescence in human Neutrophils. ROS induced with PMA (30 ng/ml) with 200, 100 or 0 microM NAC. Concentrations of compounds 120, 60, 30 and 0 microM final concentrations.
FIG. 9: Extracellular ROS analyzed by Isoluminol induced luminescence in rat Neutrophils. ROS induced with PMA (30 ng/ml) with 200, 100 or 0 microM NAC. Concentrations of compounds 120, 60, 30 and 0 microM final concentrations.
FIG. 11: Extracellular ROS analyzed by Isoluminol induced luminescence in human PLB-985 cell line. ROS induced with PMA (30 ng/ml) with 200, 100 or 0 microM NAC. Concentrations of compounds 120, 60, 30 and 0 microM final concentrations.

[3] = system: human neutrophils; test: Luminol enhanced chemiluminescence, total ROS production in neutrophils; format: cell-based
Source text: We investigated the capacity of the material to quench ROS produced by freshly isolated human neutrophils or THP-1 cells (human acute monocytic leukemia cell line) stimulated with PMA (Phorbol Myristate Acetate). The antioxidant capacity of selenide 1 was again compared to those of Trolox, a water soluble derivative of vitamin E, which is commonly used in biological and biochemical applications to reduce oxidative stress or damage.
Neutrophils were isolated from heparinized blood of apparently healthy blood donors (Academic Hospital, Uppsala, Sweden) following a routine dextran sedimentation method essentially as described by Halansson and Venge (Scandinavian Journal of Immunology 1980, 11, 271-282). To each of three test tubes containing 5 ml heparinized blood, dextran (T500, Pharmacia, Uppsala, Sweden) was added (final concentration 1%) and the sedimentation was allowed to proceed for 30 min at room temperature. […] Finally, the pellet was resuspended in Gey's buffer and the average content of neutrophils (approximately 90%) was calculated using Türks staining and hemocytometer method. […]
The generation of oxygen free radicals over time from neutrophils was monitored for 40 minutes in 24 well white optiplates (Greiner) using a Wallac Victor […] in the luminescence mode. […]

[4] = system: human umbilical vein endothelial cells (HUVEC); test: Visual evaluation of HUVECs under the microscope (dislodging from the surface); conditions: human, 24 h
Experimental: Cells were harvested and resuspended in supplemented medium 200 without phenol red. 50 000 cells were added in duplicates to 96-well plates. The compounds were tested on HUVECs according to the following concentrations.
The compounds were diluted in Medium 200 from the 0.1M stock solution. The toxic effects of the compounds were tested after 24 hrs, 48 hrs and 72 hrs.
By visually looking at the cells under the microscope and estimating the dislodging from the surface, the state of the cells was evaluated.

[5] = system: human Neutrophils and human PBMCs; test: Intracellular ROS, luminol luminescence with SOD and catalase, PMA or fMLF stimulated cells; format: cell-based; conditions: PMA or fMLF 30 ng/ml; compounds 120, 60, 30 microM; FIG. 5-8
Experimental: as §1
The luminol reagent buffer is made of HBSS buffer (with Ca^2+), luminol and SOD/Catalase.
as §2
FIG. 5: Intracellular ROS analyzed by Luminol (intracellular ROS) induced luminescence in human Neutrophils. ROS induced with PMA (30 ng/ml) with 200, 100 or 0 microM NAC. Concentrations of compounds 120, 60, 30 and 0 microM final concentrations.
FIG. 6: Intracellular ROS analyzed by Luminol (intracellular ROS) induced luminescence in human Neutrophils. ROS induced with fMLF (30 ng/ml) with 200, 100 or 0 microM NAC. Concentrations of compounds 120, 60, 30 and 0 microM final concentrations.
FIG. 7: Intracellular ROS analyzed by Luminol (intracellular ROS) induced luminescence in human PBMCs. ROS induced with PMA (30 ng/ml) with 200, 100 or 0 microM NAC. Concentrations of compounds 120, 60, 30 and 0 microM final concentrations.
FIG. 8: Intracellular ROS analyzed by Luminol (intracellular ROS) induced luminescence in human PBMCs. […]

SMILES: CC1Cc2cc(O)ccc2[Se]1 (stereo not shown) [Compound 1]
- potency as inhibitor of TBARS production compared with references [1]: more potent inhibitors of TBARS production than Trolox and N-acetylcysteine
- concentration able to inhibit 50% of the TBARS formation in the control incubation ([1]; re-oxygenation after Argon): sub-micromolar
- antioxidative effect on extracellular ROS [2]: antioxidative effect on extra cellular ROS
- effect on ROS production in neutrophils ([3]; 20, 40, 60 micro-M, FIG. 22): clear, dose dependent, quenching/inhibiting effect
- quenching of ROS from neutrophils compared with Trolox ([3]; 20 micro-M each): considerably more effective than Trolox
- concentration at which cells were affected (visual) [4]: 500 µM
- antioxidative effect on intracellular ROS [5]: strong antioxidative effect
